Measurements from ChEMBL document CHEMBL5291721, “A preclinical secondary pharmacology resource illuminates target-adverse drug reaction associations of marketed drugs” (Nat Commun, 2023).

Assays:
[1] = biological target: Vasopressin V1a receptor (Homo sapiens, UniProt P37288)
[2] = biological target: Prothrombin (Homo sapiens, UniProt P00734); format: functional
[3] = biological target: T1, Prostaglandin G/H synthase 1 (Homo sapiens, UniProt P23219); format: functional
[4] = biological target: T2, 5-hydroxytryptamine receptor 1A (Homo sapiens, UniProt P08908)
T2 sequence (P08908 whole entry): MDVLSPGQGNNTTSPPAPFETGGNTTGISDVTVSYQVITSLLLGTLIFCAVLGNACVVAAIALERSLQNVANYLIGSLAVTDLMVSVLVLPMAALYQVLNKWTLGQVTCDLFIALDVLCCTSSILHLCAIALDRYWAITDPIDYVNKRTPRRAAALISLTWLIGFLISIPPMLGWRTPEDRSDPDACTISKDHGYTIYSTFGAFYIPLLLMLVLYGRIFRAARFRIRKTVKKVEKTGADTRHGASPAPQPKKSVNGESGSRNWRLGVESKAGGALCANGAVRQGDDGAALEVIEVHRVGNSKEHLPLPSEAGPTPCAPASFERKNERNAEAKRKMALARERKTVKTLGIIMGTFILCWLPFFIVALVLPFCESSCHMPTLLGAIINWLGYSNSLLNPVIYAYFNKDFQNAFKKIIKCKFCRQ

[5] = biological target: T3, B2 bradykinin receptor (Homo sapiens, UniProt P30411)
T3 sequence (P30411 whole entry): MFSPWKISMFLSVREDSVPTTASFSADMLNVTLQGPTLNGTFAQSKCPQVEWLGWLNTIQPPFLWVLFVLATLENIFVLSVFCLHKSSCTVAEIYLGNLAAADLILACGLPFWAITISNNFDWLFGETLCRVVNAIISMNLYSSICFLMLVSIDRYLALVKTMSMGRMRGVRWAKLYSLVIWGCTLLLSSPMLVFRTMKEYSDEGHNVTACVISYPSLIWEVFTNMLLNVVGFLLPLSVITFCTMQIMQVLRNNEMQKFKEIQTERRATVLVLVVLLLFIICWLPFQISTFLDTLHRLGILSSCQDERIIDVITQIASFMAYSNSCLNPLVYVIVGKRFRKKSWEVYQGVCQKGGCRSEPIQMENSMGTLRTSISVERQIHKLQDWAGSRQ

[6] = biological target: Vascular endothelial growth factor receptor 2 (Homo sapiens, UniProt P35968); format: functional
Sequence of Vascular endothelial growth factor receptor 2 (P35968 whole entry): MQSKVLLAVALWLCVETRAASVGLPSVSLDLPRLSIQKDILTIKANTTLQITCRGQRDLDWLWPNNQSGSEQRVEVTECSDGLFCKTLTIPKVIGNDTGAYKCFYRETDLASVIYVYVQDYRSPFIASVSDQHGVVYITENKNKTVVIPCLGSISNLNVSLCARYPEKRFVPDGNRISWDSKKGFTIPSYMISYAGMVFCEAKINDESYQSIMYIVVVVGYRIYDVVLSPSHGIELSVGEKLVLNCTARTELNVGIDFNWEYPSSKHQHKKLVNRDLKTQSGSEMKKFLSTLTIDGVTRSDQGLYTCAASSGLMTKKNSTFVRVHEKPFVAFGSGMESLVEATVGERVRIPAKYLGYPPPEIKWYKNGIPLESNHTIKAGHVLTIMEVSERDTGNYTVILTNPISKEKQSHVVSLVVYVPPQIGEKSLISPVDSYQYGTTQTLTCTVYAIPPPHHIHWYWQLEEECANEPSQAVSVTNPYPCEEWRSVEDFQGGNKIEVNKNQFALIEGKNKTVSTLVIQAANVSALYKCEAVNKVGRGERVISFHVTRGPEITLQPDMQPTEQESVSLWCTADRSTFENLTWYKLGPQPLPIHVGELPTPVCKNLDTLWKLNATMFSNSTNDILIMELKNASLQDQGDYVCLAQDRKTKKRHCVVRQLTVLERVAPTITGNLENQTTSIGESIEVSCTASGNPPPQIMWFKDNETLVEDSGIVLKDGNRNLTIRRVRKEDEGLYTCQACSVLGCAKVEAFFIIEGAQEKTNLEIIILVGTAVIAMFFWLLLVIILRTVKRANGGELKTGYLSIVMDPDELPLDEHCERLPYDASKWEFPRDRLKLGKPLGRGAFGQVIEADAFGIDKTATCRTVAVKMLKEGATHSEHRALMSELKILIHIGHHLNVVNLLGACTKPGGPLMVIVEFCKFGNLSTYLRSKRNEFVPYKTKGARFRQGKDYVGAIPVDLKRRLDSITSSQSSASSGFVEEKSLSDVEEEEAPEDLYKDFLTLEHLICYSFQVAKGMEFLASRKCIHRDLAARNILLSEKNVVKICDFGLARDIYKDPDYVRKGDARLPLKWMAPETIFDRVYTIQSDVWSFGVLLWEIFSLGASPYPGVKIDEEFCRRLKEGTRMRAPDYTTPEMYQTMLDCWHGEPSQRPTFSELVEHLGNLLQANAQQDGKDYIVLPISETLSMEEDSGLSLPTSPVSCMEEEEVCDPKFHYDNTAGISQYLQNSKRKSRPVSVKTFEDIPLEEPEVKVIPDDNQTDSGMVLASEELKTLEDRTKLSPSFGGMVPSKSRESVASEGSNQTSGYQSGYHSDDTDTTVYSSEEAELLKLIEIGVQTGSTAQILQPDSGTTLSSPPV

[7] = biological target: Acetylcholinesterase (Homo sapiens, UniProt P22303); format: functional
Sequence of Acetylcholinesterase (P22303 whole entry): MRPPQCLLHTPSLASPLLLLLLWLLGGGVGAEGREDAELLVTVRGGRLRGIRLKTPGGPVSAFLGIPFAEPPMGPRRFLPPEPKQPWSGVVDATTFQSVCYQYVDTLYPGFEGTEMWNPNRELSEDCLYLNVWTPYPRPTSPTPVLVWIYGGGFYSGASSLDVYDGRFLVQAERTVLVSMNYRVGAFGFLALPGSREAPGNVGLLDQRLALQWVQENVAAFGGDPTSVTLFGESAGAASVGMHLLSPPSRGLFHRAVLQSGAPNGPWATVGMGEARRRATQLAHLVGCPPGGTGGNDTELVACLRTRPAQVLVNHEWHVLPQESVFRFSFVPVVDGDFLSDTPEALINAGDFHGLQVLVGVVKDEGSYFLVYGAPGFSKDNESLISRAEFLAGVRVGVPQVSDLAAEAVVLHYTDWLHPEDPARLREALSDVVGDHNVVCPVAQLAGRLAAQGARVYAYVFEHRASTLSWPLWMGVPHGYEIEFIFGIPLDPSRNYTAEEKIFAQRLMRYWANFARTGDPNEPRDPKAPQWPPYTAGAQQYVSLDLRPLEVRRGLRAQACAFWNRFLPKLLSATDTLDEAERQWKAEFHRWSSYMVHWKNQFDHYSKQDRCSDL

[8] = biological target: T1, Prostaglandin G/H synthase 1; format: functional; remark: listed apart in the source
[9] = biological target: Mu-type opioid receptor (Homo sapiens, UniProt P35372)
Sequence of Mu-type opioid receptor (P35372 whole entry): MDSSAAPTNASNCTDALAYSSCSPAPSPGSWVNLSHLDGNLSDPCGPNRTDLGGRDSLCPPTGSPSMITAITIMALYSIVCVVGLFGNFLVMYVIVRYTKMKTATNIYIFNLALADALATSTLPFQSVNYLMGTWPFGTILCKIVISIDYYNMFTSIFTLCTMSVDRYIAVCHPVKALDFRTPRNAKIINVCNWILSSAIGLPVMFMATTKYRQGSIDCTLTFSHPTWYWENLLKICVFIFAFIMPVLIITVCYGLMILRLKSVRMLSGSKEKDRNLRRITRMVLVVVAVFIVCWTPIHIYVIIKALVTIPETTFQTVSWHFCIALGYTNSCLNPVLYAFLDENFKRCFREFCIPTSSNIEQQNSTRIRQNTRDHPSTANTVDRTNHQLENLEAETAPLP

[10] = biological target: T2, 5-hydroxytryptamine receptor 1A; format: functional, cell-based
[11] = biological target: D(1A) dopamine receptor (Homo sapiens, UniProt P21728)
Sequence of D(1A) dopamine receptor (P21728 whole entry): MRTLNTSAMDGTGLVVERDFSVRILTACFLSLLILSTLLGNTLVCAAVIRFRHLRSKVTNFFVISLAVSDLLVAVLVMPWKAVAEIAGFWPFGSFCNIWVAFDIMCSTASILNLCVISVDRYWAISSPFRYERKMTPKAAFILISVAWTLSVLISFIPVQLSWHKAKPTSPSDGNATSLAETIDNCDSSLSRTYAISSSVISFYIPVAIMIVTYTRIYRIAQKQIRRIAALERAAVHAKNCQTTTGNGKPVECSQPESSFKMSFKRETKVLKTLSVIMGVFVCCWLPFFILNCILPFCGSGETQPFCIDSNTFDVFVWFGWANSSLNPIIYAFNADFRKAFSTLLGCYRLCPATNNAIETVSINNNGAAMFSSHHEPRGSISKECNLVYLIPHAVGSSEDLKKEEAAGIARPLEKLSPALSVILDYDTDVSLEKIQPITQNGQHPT

[12] = biological target: T4, Progesterone receptor (Homo sapiens, UniProt P06401)
T4 sequence (P06401 whole entry): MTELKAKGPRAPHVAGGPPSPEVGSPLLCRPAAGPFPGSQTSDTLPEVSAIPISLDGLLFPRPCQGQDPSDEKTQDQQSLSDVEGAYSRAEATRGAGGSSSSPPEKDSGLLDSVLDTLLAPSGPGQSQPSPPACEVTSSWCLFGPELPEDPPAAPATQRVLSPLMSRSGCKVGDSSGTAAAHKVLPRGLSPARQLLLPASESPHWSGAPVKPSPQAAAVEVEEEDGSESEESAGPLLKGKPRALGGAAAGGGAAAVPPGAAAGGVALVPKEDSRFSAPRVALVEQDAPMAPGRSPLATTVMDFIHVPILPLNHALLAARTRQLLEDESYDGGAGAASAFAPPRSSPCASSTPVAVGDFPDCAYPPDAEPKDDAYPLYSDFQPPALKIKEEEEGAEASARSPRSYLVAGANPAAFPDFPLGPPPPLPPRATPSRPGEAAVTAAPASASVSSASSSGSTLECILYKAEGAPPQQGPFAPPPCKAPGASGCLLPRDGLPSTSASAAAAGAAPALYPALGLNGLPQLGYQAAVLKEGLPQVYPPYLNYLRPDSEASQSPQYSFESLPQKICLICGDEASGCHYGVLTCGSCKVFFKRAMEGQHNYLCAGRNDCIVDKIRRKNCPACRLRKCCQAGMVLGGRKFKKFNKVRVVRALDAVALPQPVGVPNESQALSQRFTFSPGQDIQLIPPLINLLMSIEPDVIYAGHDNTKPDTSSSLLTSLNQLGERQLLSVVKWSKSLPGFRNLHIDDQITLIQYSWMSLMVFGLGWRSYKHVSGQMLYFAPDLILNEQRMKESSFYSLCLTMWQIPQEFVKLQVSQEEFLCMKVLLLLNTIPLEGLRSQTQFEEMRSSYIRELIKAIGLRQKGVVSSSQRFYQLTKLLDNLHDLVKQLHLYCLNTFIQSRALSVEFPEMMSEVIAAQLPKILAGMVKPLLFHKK

[13] = biological target: T4, Progesterone receptor; format: functional
Also: assay procedure not described here.

T1 sequence (P23219 whole entry): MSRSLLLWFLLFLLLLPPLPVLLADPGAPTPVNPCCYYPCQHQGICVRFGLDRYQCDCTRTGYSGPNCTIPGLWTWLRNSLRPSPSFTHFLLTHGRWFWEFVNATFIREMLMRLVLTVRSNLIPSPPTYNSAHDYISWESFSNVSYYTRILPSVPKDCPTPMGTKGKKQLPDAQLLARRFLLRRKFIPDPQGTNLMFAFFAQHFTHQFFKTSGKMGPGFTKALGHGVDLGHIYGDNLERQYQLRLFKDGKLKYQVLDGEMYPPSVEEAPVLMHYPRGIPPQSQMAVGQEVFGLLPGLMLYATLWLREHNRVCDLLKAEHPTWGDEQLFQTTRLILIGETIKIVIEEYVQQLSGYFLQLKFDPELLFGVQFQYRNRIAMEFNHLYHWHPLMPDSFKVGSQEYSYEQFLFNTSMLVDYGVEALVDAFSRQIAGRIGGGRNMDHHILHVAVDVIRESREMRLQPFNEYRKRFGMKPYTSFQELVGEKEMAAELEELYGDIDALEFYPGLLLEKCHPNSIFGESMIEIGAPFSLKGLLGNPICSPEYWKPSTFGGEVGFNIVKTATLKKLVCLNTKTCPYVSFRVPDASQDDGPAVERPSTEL
Sequence of Vasopressin V1a receptor (P37288 whole entry): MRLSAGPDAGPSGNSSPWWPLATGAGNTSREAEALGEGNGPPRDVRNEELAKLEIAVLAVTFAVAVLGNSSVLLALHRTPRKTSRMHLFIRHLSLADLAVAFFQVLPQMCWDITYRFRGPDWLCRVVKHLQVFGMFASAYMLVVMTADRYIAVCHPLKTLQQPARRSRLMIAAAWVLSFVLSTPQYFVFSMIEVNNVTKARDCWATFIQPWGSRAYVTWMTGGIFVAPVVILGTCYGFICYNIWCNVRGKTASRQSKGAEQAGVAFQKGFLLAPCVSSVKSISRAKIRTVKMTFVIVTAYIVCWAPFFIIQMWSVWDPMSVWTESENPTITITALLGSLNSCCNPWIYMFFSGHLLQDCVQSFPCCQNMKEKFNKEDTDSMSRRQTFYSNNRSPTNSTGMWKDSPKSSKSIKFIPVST

Structure (SMILES)	AC50 [1] [µM]	AC50 [2] [µM]	AC50 [3] [µM]	AC50 [4] [µM]	AC50 [5] [µM]	AC50 [6] [µM]	AC50 [7] [µM]	AC50 [8] [µM]	AC50 [9] [µM]	AC50 [10] [µM]	AC50 [11] [µM]	AC50 [12] [µM]	AC50 [13] [µM]
CCOC(=O)[C@H](CCc1ccccc1)N[C@@H](C)C(=O)N1Cc2ccccc2C[C@H]1C(=O)O	> 10	> 30	> 30	> 30	> 30	> 30	> 30	> 30	> 30	> 10	> 30	> 30	–
CN(C)CCC=C1c2ccccc2CCc2ccccc21 [AMITRIPTYLINE]	> 30	> 30	> 30	0.337	> 30	> 30	> 30	> 30	9.46	–	–	> 30	> 30
CN(C)CCCC1(c2ccc(F)cc2)OCc2cc(C#N)ccc21 (stereo not drawn) [CITALOPRAM]	> 10	> 30	> 30	–	> 30	> 30	> 30	> 30	–	> 10	–	> 30	–
NCC1(CC(=O)O)CCCCC1 [GABAPENTIN]	> 30	> 30	> 30	> 30	> 30	> 30	> 30	> 30	> 30	> 30	> 30	> 30	> 30
CS(=O)(=O)Nc1ccc([N+](=O)[O-])cc1Oc1ccccc1 [NIMESULIDE]	> 30	> 30	–	> 30	20	> 30	> 30	–	> 30	–	> 30	> 30	> 30
CC1=C(C/C=C(\C)CCC[C@H](C)CCC[C@H](C)CCCC(C)C)C(=O)c2ccccc2C1=O [PHYTONADIONE]	–	> 30	13.4	> 30	–	> 30	> 30	> 30	> 30	–	> 30	> 30	–
NC(=O)C1(N2CCCCC2)CCN(CCCC(=O)c2ccc(F)cc2)CC1 [PIPAMPERONE]	–	> 30	> 30	11.5	–	> 30	> 30	> 30	7.02	–	0.258	> 30	–
CC(C)(Oc1ccc(Cl)cc1)C(=O)NC(=O)NCN1CCOCC1 [PLAFIBRIDE]	–	> 30	> 30	> 30	–	> 30	> 30	> 30	> 30	–	> 30	> 30	–
CC(C)NC[C@H](O)COc1ccc(O)cc1 [PRENALTEROL]	–	> 30	5.86	> 30	–	> 30	> 30	8.99	> 30	–	> 30	> 30	–
CN1CCC(N(Cc2cccs2)c2ccccc2)CC1 [THENALIDINE]	–	> 30	> 30	8.65	–	> 30	> 30	> 30	7.42	–	11.6	> 30	–
Cc1ccc(C(C)C)c(O)c1 [THYMOL]	–	> 30	> 3	> 30	–	> 30	> 30	> 30	> 30	–	> 30	> 30	–
Cc1cccc(C)c1NC(=O)c1cc(S(N)(=O)=O)c(Cl)cc1O [XIPAMIDE]	–	> 30	> 30	> 30	–	> 30	> 30	> 30	> 30	–	> 30	> 30	–
